According to article PMC6020026 (Bioorganic & medicinal chemistry letters, 2017):

Assay: Cytotoxicity on differentiated THP-1 macrophages
Assay type: cell-based
Settings: human
[1] = differentiated THP-1 macrophages

Row | SMILES | CC50 [1] [µM] | CC50 [µM]
1 | C[C@@H]1[C@H](O)[C@@H](C)/C=C/C=C/C=C/C=C/C=C/C=C/C=C/[C@H](O[C@@H]2O[C@H](C)[C@@H](O)[C@H](N)[C@@H]2O)C[C@@H]2O[C@](O)(C[C@@H](O)C[C@@H](O)[C@H](O)CC[C@@H](O)C[C@@H](O)CC(=O)O[C@H]1C)C[C@H](O)[C@H]2C(=O)O [Amph.B, Amphotericin B, reference compound] | 9.8 | –
2 | O=C(/C=C/c1ccc([N+](=O)[O-])o1)c1ccc(C2CCCCC2)cc1 [LabMol-72] | 31.1 | –
3 | O=C(/C=C/c1ccc([N+](=O)[O-])o1)c1ccc(I)cc1 [LabMol-78] | 49.5 | –
4 | CC(C)(C)c1ccc(C(=O)/C=C/c2ccc([N+](=O)[O-])s2)cc1 [LabMol-86] | 8.4 | –
5 | CSc1ccc(C(=O)/C=C/c2ccc([N+](=O)[O-])o2)cc1 [LabMol-92] | – | 13.1
